± gives the standard deviation of the averaged measurements.
Key:
Assay in all cases: level (log10 ratio to DMSO vehicle control); higher = higher biomarker level / cell amount than vehicle control
Conditions in all cases: in DMSO
[1] = compound: O=C(O)C(F)(F)C(F)(F)C(F)(F)C(F)(F)F [Perfluoropentanoic acid]
Procedure: (§1)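 BioMAP Diversity Plus panel of 12 human primary cell co-culture systems (3C, 4H, LPS, SAg, BT, BF4T, BE3C, CASM3C, HDF3CGF, KF3CT, MyoF, Mphg). Compounds were added 1 h before stimulation and left for 24 h (MyoF 48 h; BT 72 h for soluble read-outs or 6 d for IgG). Biomarkers were read by ELISA, cytotoxicity by SRB, PBMC viability and proliferation by Alamar Blue. Each well value was divided by the mean of 8 DMSO control wells on the same plate and log10 transformed; duplicate blinded samples were tested at 4 concentrations.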

[2] = compound: O=C(O)C(F)(F)C(F)(F)C(F)(F)OC(F)(C(F)(F)F)C(F)(F)F [Perfluoro-4-isopropoxybutanoic acid]
Procedure: as §1

[3] = compound: COC(=O)CCC(F)(F)C(F)(F)C(F)(F)C(F)(F)F [Methyl 2H,2H,3H,3H-perfluoroheptanoate]
Procedure: as §1

[4] = compound: O=C(O)C(F)(F)C(F)(F)C(F)(F)C(F)(F)C(F)(F)C(F)(F)C(F)(F)C(F)(F)C(F)(F)F [Perfluorodecanoic acid]
Procedure: as §1

[5] = compound: C=CC(F)(F)C(F)(F)C(F)(F)C(F)(F)C(F)(F)C(F)(F)C(F)(F)C(F)(F)C=C [1,8-Divinylperfluorooctane]
Procedure: as §1

[6] = compound: NC(=O)C(F)(F)C(F)(F)F [Pentafluoropropionamide]
Procedure: as §1

[7] = compound: O=C(O)C(F)(F)OC(F)(F)C(F)(F)OC(F)(F)F [Perfluoro-3,6-dioxaheptanoic acid]
Procedure: as §1

Test System	level (log10) ([1]; 6700 nM)	level (log10) ([1]; 20000 nM)	level (log10) ([1]; 60000 nM)	level (log10) ([2]; 6700 nM)	level (log10) ([2]; 20000 nM)	level (log10) ([2]; 60000 nM)	level (log10) ([3]; 6700 nM)	level (log10) ([3]; 20000 nM)	level (log10) ([3]; 60000 nM)	level (log10) ([4]; 6700 nM)	level (log10) ([4]; 20000 nM)	level (log10) ([5]; 6700 nM)	level (log10) ([5]; 20000 nM)	level (log10) ([6]; 6700 nM)	level (log10) ([6]; 20000 nM)	level (log10) ([6]; 60000 nM)	level (log10) ([7]; 6700 nM)	level (log10) ([7]; 20000 nM)	level (log10) ([7]; 60000 nM)
CASM3C:Proliferation	0.0185 ± 0.021	-0.0305 ± 0.067	0.0215 ± 0.052	-0.018 ± 0.0099	-0.037 ± 0.025	-0.0085 ± 0.057	-0.001 ± 0.0028	-0.038 ± 0.0042	0.0025 ± 0.0035	0.049 ± 0.0028	0.0205 ± 0.035	-0.018 ± 0.027	0.0305 ± 0.013	-0.0115 ± 0.015	-0.0025 ± 0.011	0.0235 ± 0.069	0.02 ± 0.016	-0.034 ± 0.065	-0.077 ± 0.017
KF3CT:uPA	0.0015 ± 0.023	0 ± 0.0085	0.021 ± 0.0071	-0.002 ± 0.0028	0.0105 ± 0.0035	0.016 ± 0.0014	-0.007 ± 0.033	0.0005 ± 0.0092	-0.008 ± 0.025	-0.0095 ± 0.013	0 ± 0.023	-0.0185 ± 0.0035	-0.0185 ± 0.028	-0.005 ± 0.0014	0.008 ± 0.0085	0.002 ± 0.018	-0.0175 ± 0.019	0.023 ± 0.033	0.017 ± 0.05
BE3C:uPA	-0.0115 ± 0.0021	-0.013 ± 0.0057	0.004 ± 0.018	-0.001 ± 0.0042	0.0025 ± 0.012	0.0185 ± 0.0064	-0.013 ± 0.042	-0.0155 ± 0.018	-0.0155 ± 0.012	-0.0025 ± 0.011	-0.38 ± 0.0099	-0.0245 ± 0.0064	-0.0315 ± 0.0078	-0.0305 ± 0.028	-0.0265 ± 0.015	-0.011 ± 0.014	-0.0495 ± 0.079	-0.028 ± 0.069	-0.011 ± 0.041
MyoF:SRB	0.003 ± 0.0028	-0.009 ± 0.0014	-0.004 ± 0.0057	-0.0055 ± 0.0021	0.0015 ± 0.00071	-0.0035 ± 0.0064	-0.004 ± 0.0028	0.0065 ± 0.0035	0.0065 ± 0.0064	-0.033 ± 0.0014	-0.08 ± 0.0099	0.0165 ± 0.013	0.006 ± 0.0057	0.0045 ± 0.0021	-0.007 ± 0.0057	-0.0015 ± 0.0035	-0.0055 ± 0.0035	-0.0015 ± 0.00071	0.004 ± 0.0085
lMphg:CD40	0.0225 ± 0.0092	-0.0085 ± 0.0064	0.0175 ± 0.0078	-0.012 ± 0.013	-0.041 ± 0.034	-0.027 ± 0.035	-0.0295 ± 0.0035	-0.0285 ± 0.005	-0.039 ± 0.034	-0.0025 ± 0.039	-0.0385 ± 0.05	-0.04 ± 0.0099	-0.0195 ± 0.032	-0.0235 ± 0.022	-0.017 ± 0.011	-0.0115 ± 0.013	-0.0125 ± 0.0035	0.0065 ± 0.028	-0.0055 ± 0.036
KF3CT:CXCL10/IP-10	0.002 ± 0.0042	-0.0085 ± 0.0035	0.0025 ± 0.016	0.019 ± 0.034	0.017 ± 0.023	0.0235 ± 0.043	0.005 ± 0.02	-0.003 ± 0.0014	-0.005 ± 0.0014	-0.044 ± 0.017	-0.134 ± 0.028	-0.001 ± 0.018	-0.0135 ± 0.005	-0.007 ± 0.0014	0 ± 0.0028	-0.0145 ± 0.0035	-0.0085 ± 0.00071	-0.0055 ± 0.005	0.003 ± 0.013
MyoF:PAI-I	-0.0035 ± 0.00071	0.005 ± 0.0071	0.0075 ± 0.0021	-0.0035 ± 0.015	-0.007 ± 0.0042	0.006 ± 0.018	-0.003	0.0055 ± 0.0078	0.003 ± 0.014	0.0035 ± 0.012	0.0205 ± 0.025	0.003 ± 0.0071	0.006 ± 0.0071	0.0075 ± 0.0021	-0.002 ± 0.0071	-0.004 ± 0.0057	-0.019 ± 0.038	-0.0245 ± 0.03	-0.0275 ± 0.025
MyoF:TIMP-1	-0.0195 ± 0.023	-0.043 ± 0.034	-0.002 ± 0.042	0.0135 ± 0.059	0.0705 ± 0.083	0.0855 ± 0.1	-0.0585 ± 0.047	-0.02 ± 0.035	0.01 ± 0.014	-0.0345 ± 0.035	-0.059 ± 0.038	-0.0315 ± 0.054	0.01 ± 0.076	-0.053 ± 0.027	-0.048 ± 0.034	-0.0225 ± 0.064	-0.0305 ± 0.097	-0.006 ± 0.079	-0.001 ± 0.044
lMphg:CCL2/MCP-1	0.038 ± 0.0028	0.0155 ± 0.03	0.0015 ± 0.035	-0.018 ± 0.0042	-0.0185 ± 0.0092	0.0175 ± 0.0078	-0.004 ± 0.0085	-0.011 ± 0.011	0.003 ± 0.031	0.001 ± 0.0042	0.0095 ± 0.023	-0.0195 ± 0.013	0.0125 ± 0.03	-0.0145 ± 0.0035	-0.012 ± 0.0042	0 ± 0.03	0.0035 ± 0.00071	-0.006 ± 0.0099	0 ± 0.0042
lMphg:CXCL8/IL-8	0.005 ± 0.031	-0.0275 ± 0.013	0.044 ± 0.064	0.02 ± 0.042	0.066 ± 0.038	0.164 ± 0.0035	-0.0045 ± 0.018	-0.0025 ± 0.0064	-0.0005 ± 0.018	0.0415 ± 0.049	0.04 ± 0.023	0.0055 ± 0.026	0.0125 ± 0.064	0.007 ± 0.0071	0.001 ± 0.04	-0.004 ± 0.013	0.026 ± 0.017	0.068 ± 0.051	0.167 ± 0.074
CASM3C:IL-6	-0.02 ± 0.028	-0.028 ± 0.027	0.014 ± 0.047	-0.0055 ± 0.019	-0.002 ± 0.025	0.0285 ± 0.084	-0.019 ± 0.021	-0.025 ± 0.0028	0.0005 ± 0.028	-0.035 ± 0.037	-0.0375 ± 0.039	-0.033 ± 0.024	0.003 ± 0.055	-0.021 ± 0.017	-0.025 ± 0.0028	-0.003 ± 0.041	-0.01 ± 0.044	-0.0255 ± 0.0035	-0.017 ± 0.02
BE3C:Keratin 8/18	-0.006 ± 0.0057	-0.011 ± 0.0071	0.0035 ± 0.032	-0.0135 ± 0.0021	-0.024 ± 0.0028	0.009 ± 0.013	-0.0225 ± 0.005	0.0015 ± 0.015	-0.0165 ± 0.018	0.0035 ± 0.029	-0.337 ± 0.0035	0.0015 ± 0.005	-0.0165 ± 0.005	-0.0185 ± 0.0021	-0.0185 ± 0.005	-0.0185 ± 0.018	-0.033 ± 0.041	-0.0085 ± 0.022	-0.03 ± 0.017

Reference: the supplement of paper PMC10331698
